In patent US8143296B2, “Thiazole-based compound and inhibitor of T-type calcium channel containing the same” (Korea Institute of Science and Technology, priority 2006, dated 2012):
Counter-ions that a name gives are not always drawn.

These compounds were tested against T1, α1G T-type calcium channel (Homo sapiens, UniProt O43497) (assay: Assay for % inhibiting activity against T-type calcium channel using FDSS6000). Settings: 10 μM; HEK293 cells expressing α1G; Table 3 (Chemical Formula 2 series); hydrochloride.
T1 construct: host or cells: HEK293
Assay type: cell-based
Description: In the present invention, in order to search an efficient inhibitor against T-type calcium channel, a primary assay for T-type calcium channel inhibiting activity was conducted by a high-efficient assay using FDSS6000, wherein mammal HEK293 cell lines (originated from human kidney carcinoma cells) which specifically expresses α1G of T-type calcium channel was used for primary assay. Through the primary assay, compounds which show meaningful inhibition effects were selected. The selected compounds were used in a second assay for T-type calcium channel inhibiting activity using electrophysiological whole cell patch clamp method, wherein mammal HEK293 cell lines (originated from human kidney carcinoma cells) which specifically expresses α1G of T-type calcium channel was used for the second assay.
At 12-24 hours before being used for this assay, cells of HEK293 cell line (α1G cell line: KCTC 10519BP, Korean Collection for Type Cultures), which stably express α1G T-type calcium channel and Kir2.1, were sub-cultured in a poly-L-lysine treated 96-well plate with the density of 4×10^4 per a well using a 96-well cell dispenser (Titertek). On the of assay, the 96-well plate to which the cells were attached were washed three times with HEPES buffer solution (150 mM of NaCl, 5 mM of KCl, 1 mM of MgCl2, 2 mM of CaCl2, 10 mM of HEPES, 10 mM of glucose; pH 7.4) using a 96-well plate automatic washing device (Bio Tek), then reacted with HEPES buffer solution containing 5 μM fluo-3/AM and 0.001% Pluronic F-127 under room temperature for 1 hour, to label with fluorescent dye, and then further washed two times with HEPES buffer solution.
Thereafter, at 10 minutes before the measurement using device FDSS6000, a washing with HEPES buffer solution containing 10 mM CaCl2 was conducted once more, and the final volume was adjusted to 81 μl. Besides the above 96-well plate containing the cells, additional two drug 96-well plates were provided, wherein the 96-well plates contain inhibiting drug and KCl (final concentration: 75 mM) for activating T-type calcium channel, respectively. Since most of cell-based HTS devices are equipped with a liquid application system for injection of drug, but have no liquid sucking system, the inhibiting drug to be tested and KCl were respectively provided at the five-times higher concentration in 10 mM CaCl2 HEPES buffer solution at the amount of 27 μl, diluted five-times at the final cell plate volume of 135 μl, and then used in this test. The concrete method of measurement using FDSS6000 was as follows: After recording the reference value of 20 seconds, the change of intracellular Ca^2+ concentration which induced by treatment of the inhibiting drug to be tested for 75 seconds followed by administration of KCl was measured, wherein the percentage (%) inhibition effect of the test drug, through estimating the area of ratio value of 340/380 in the control without treatment of the test drug as 100%. As a reference drug, mibefradil was used.
For accurate calcium-imagination, the light source of 4 xenon lamps in FDSS6000 were radiated to make the cells exposed selectively to the excitation wavelength (340 nm and 380 nm) by computer-controlled filter wheel. Data was obtained at interval of each 1.23 second. The emitter fluorescence light inflowed through long-pass filter was obtained as an average 340/380 ratio value for each well in the 96-wells by using CCD camera and digital fluorescence analyzer in FDSS6000. All image data and analyses were obtained by using FDSS6000-exclusive program provide from Hamamatsu Photonics.

T1 sequence (O43497 whole entry): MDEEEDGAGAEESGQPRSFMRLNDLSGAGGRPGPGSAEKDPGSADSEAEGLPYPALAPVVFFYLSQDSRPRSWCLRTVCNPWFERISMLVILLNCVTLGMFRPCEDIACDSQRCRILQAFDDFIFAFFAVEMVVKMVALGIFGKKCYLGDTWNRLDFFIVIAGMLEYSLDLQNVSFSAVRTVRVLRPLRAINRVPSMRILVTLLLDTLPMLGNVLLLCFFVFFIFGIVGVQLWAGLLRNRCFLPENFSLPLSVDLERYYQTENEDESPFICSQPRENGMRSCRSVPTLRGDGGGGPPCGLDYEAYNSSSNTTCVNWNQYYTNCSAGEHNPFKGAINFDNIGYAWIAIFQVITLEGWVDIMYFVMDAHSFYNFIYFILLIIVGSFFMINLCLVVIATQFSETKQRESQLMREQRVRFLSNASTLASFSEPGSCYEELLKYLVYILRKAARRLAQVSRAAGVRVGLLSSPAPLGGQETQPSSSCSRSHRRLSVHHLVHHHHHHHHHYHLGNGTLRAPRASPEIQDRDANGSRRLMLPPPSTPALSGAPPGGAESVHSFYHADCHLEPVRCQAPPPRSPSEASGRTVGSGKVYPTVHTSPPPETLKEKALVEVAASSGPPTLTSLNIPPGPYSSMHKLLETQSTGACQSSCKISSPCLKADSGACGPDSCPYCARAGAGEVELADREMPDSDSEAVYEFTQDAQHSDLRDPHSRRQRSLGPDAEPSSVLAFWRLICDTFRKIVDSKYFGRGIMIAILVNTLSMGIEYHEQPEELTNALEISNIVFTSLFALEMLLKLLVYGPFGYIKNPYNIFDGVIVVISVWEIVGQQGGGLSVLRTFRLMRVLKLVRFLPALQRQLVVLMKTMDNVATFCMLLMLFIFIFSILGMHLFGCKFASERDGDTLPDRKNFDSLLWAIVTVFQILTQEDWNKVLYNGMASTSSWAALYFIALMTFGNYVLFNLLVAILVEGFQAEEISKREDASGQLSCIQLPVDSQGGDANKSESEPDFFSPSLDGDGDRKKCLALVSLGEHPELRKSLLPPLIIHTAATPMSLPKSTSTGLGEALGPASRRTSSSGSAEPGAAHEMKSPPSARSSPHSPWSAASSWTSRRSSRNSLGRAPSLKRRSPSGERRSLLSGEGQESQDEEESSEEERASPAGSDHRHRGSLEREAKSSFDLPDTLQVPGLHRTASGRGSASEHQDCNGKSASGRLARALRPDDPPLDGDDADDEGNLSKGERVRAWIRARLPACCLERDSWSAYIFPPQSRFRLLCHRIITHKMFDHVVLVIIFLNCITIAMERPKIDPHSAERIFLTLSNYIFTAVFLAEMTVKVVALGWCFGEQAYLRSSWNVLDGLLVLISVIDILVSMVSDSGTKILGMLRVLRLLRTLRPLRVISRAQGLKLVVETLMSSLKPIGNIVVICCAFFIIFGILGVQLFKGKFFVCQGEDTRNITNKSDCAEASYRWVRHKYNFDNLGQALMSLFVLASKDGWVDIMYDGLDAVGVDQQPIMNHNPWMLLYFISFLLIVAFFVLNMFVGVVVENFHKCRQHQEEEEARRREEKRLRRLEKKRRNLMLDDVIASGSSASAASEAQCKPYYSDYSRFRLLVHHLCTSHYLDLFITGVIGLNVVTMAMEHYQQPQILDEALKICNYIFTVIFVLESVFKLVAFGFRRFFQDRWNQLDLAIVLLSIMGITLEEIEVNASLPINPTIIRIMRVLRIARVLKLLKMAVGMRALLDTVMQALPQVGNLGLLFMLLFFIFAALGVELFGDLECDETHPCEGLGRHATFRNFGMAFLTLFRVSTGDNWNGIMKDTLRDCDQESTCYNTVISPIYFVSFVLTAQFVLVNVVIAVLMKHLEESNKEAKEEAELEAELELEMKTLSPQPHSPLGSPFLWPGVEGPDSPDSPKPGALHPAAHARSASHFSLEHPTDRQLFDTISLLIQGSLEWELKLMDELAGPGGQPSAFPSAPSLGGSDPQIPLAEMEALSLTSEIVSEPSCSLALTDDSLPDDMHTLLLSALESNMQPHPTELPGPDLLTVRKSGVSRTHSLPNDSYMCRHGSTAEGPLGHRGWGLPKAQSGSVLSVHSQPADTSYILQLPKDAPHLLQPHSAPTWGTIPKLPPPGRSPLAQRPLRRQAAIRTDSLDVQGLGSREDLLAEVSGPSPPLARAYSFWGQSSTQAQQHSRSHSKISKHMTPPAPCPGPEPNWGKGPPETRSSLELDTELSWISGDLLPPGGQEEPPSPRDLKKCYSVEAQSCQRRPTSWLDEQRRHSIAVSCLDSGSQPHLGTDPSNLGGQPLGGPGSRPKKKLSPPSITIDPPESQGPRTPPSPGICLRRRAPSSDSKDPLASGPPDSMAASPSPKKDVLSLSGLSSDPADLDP

Going from `COc1ccc(NC(=O)Cc2csc(N=C(N)N)n2)cc1F.Cl` [KHG23399, 2-(2-(diaminomethyleneamino)thiazole-4-yl)-N-(3-fluoro-4-methoxyphenyl)acetamide hydrochloride] to `Cc1ccc(NC(=O)Cc2csc(N=C(N)N)n2)cc1Cl.Cl` [KHG23397, N-(3-chloro-4-methylphenyl)-2-(2-(diaminomethyleneamino)thiazole-4-yl)acetamide hydrochloride], the “% Inhibition [α1G, 10 μM) using FDSS6000” value rises from 3.4% to 14.2%.

`CCCCCCc1ccc(NC(=O)Cc2csc(N=C(N)N)n2)cc1.Cl` [KHG23386, 2-(2-(diaminomethyleneamino)thiazole-4-yl)-N-(4-hexylphenyl)acetamide hydrochloride] was tested, and the “% Inhibition [α1G, 10 μM) using FDSS6000” value was 4.5%.

Same assay, conditions: 10 μM; HEK293 cells expressing α1G; Table 4 (Chemical Formula 3 series); hydrobromide

`Br.NC(N)=Nc1nc(-c2ccc([N+](=O)[O-])cc2)cs1` [KHG24375, 2-(4-(4-nitrophenyl)thiazole-2-yl)guanidine hydrobromide] was tested, and the “% Inhibition [α1G, 10 μM) using FDSS6000” value was 19.90%.

Same assay, conditions: HEK293, 10 μM; HEK293 cells expressing α1G; Table 3 (Chemical Formula 2 series)

First: CCOC(=O)c1cccc(NC(=O)Cc2csc(N=C(N)N)n2)c1 [KHG23382, ethyl 3-(2-(2-(diaminomethyleneamino)thiazole-4-yl)acetamido)benzoate hydrochloride]
Second: CCOC(=O)c1ccc(NC(=O)Cc2csc(N=C(N)N)n2)cc1 [KHG23385, ethyl 4-(2-(2-(diaminomethyleneamino)thiazole-4-yl)acetamido)benzoate hydrochloride]
The inhibition at 10 µM of the first is higher: 24% for the first, 5.9% for the second.

Going from `NC(N)=Nc1nc(CC(=O)Nc2c(Cl)cc(OC(F)(F)F)cc2Cl)cs1` [KHG23398, 2-(2-(diaminomethyleneamino)thiazole-4-yl)-N-(2,6-dichloro-4-(trifluoromethoxy)phenyl)acetamide hydrochloride] to `NC(N)=Nc1nc(CC(=O)Nc2c(Cl)cc(C(F)(F)F)cc2Cl)cs1` [KHG23391, 2-(2-(diaminomethyleneamino)thiazole-4-yl)-N-(2,6-dichloro-4-(trifluoromethyl)phenyl)acetamide hydrochloride], the inhibition at 10 µM rises from 0.2% to 0.8%.

Going from `COc1ccc(NC(=O)Cc2csc(N=C(N)N)n2)c(C)c1` [KHG23393, 2-(2-(diaminomethyleneamino)thiazole-4-yl)-N-(4-methoxy-2-methylphenyl)acetamide hydrochloride] to `NC(N)=Nc1nc(CC(=O)Nc2cc([N+](=O)[O-])ccc2F)cs1` [KHG23168, 2-(2-(diaminomethyleneamino)thiazole-4-yl)-N-(2-fluoro-5-nitrophenyl)acetamide hydrochloride], the inhibition at 10 µM rises from 3.8% to 21.6%.

Going from `N#CCc1ccc(NC(=O)Cc2csc(N=C(N)N)n2)cc1` [KHG23387, N-(4-(cyanomethyl)phenyl)-2-(2-(diaminomethyleneamino)thiazole-4-yl)acetamide hydrochloride] to `CC(C)c1ccc(NC(=O)Cc2csc(N=C(N)N)n2)cc1` [KHG23379, 2-(2-(diaminomethyleneamino)thiazole-4-yl)-N-(4-isopropylphenyl)acetamide hydrochloride], the inhibition at 10 µM rises from 3.2% to 14.7%.

Compound `NC(N)=Nc1nc(CC(=O)Nc2c(Cl)c(Cl)cc(Cl)c2Cl)cs1` [KHG23395, 2-(2-(diaminomethyleneamino)thiazole-4-yl)-N-(2,3,5,6-tetrachlorophenyl)acetamide hydrochloride] has an inhibition at 10 µM of 2.7%.

Same assay, conditions: HEK293, 10 μM; HEK293 cells expressing α1G; Table 4 (Chemical Formula 3 series)

Compared with `Cc1ccc(-c2csc(N=C(N)N)n2)cc1` [KHG24040, 2-(4-p-tolylthiazole-2-yl)guanidine hydrobromide], `NC(N)=Nc1nc(-c2ccc([N+](=O)[O-])cc2)cs1` [KHG24389, 2-(4-(4-nitrophenyl)thiazole-2-yl)guanidine hydrobromide] is higher in inhibition at 10 µM: 16.2% for the first, 21.9% for the second.

First: NC(N)=Nc1nc(-c2ccc3ccccc3c2)cs1 [KHG24039, 2-(4-(naphthalene-2-yl)thiazole-2-yl)guanidine hydrochloride]
Second: NC(N)=Nc1nc(-c2cc(C(F)(F)F)cc(C(F)(F)F)c2)cs1 [KHG24392, 2-(4-(3,5-bis(trifluoromethyl)phenyl)thiazole-2-yl)guanidine hydrobromide]
The inhibition at 10 µM of the first is higher: 21.9% for the first, 12.9% for the second.
